{"source": "ChEMBL document CHEMBL4800726", "about": "“Data for DCP probe MSC-4381” (2021)", "key": {"[1]": {"biological_target": "T1, 5-hydroxytryptamine receptor 5A (Homo sapiens, UniProt P47898)", "T1 sequence (P47898 whole entry)": "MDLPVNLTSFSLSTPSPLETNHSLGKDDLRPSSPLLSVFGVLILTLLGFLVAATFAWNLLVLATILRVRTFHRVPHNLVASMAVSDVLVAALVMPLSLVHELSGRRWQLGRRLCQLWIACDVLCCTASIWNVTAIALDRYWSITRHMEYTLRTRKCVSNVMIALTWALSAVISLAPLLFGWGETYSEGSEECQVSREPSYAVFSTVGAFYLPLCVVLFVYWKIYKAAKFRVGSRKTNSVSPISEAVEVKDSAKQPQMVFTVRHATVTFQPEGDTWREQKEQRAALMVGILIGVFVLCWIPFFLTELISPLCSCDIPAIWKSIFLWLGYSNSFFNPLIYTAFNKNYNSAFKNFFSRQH", "assay": "GPCRScan assay: inhibition of 5-HT5A", "design": "radioligand conc. used [nm] 2.0 - 3.3, parental cells Flp-In CHO"}, "[2]": {"biological_target": "Adenosine receptor A1 (Homo sapiens) (UniProt P30542)", "assay": "A1 (h) Eurofins-Cerep binding assay", "design": "ligand concentration 1 nM", "conditions": "filed as antagonist, Compound concentration 10.0 uM; call rule not given here"}, "[3]": {"biological_target": "Beta-1 adrenergic receptor (Homo sapiens) (UniProt P08588)", "assay": "Beta1 (h) Eurofins-Cerep binding assay", "design": "ligand concentration 0.3 nM", "conditions": "filed as agonist, Compound concentration 10.0 uM"}, "[4]": {"biological_target": "Type-1 angiotensin II receptor (Homo sapiens) (UniProt P30556)", "sequence (P30556 whole entry)": "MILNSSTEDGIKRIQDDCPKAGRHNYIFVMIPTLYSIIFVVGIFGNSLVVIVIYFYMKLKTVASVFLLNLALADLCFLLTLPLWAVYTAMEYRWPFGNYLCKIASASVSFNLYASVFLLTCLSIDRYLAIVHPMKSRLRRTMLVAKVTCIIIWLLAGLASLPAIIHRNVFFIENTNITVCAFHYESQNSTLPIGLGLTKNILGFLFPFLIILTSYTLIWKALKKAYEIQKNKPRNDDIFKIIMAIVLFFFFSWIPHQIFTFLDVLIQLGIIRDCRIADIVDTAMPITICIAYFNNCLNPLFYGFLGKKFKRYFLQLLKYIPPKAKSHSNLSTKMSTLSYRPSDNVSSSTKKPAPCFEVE", "assay": "AT1 (h) Eurofins-Cerep binding assay", "design": "ligand concentration 0.05 nM", "conditions": "filed as antagonist, Compound concentration 10.0 uM"}, "[5]": {"biological_target": "GABA-A receptor; anion channel (Rattus norvegicus) (UniProt O09028+P15431+P18506+P18508+P19969+P20236+P23574+P23576+P28471+P28473+P30191+P62813+P63079+P63138+Q91ZM7+Q9ES14)", "assay": "BZD (central) Eurofins-Cerep binding assay", "format": "protein-complex assay", "design": "ligand concentration 0.4 nM", "conditions": "filed as agonist, Compound concentration 10.0 uM"}, "[6]": {"biological_target": "B2 bradykinin receptor (Homo sapiens) (UniProt P30411)", "assay": "B2 (h) Eurofins-Cerep binding assay", "design": "ligand concentration 0.3 nM", "conditions": "filed as agonist, Compound concentration 10.0 uM"}, "[7]": {"biological_target": "Cannabinoid receptor 1 (Homo sapiens) (UniProt P21554)", "sequence (P21554 whole entry)": "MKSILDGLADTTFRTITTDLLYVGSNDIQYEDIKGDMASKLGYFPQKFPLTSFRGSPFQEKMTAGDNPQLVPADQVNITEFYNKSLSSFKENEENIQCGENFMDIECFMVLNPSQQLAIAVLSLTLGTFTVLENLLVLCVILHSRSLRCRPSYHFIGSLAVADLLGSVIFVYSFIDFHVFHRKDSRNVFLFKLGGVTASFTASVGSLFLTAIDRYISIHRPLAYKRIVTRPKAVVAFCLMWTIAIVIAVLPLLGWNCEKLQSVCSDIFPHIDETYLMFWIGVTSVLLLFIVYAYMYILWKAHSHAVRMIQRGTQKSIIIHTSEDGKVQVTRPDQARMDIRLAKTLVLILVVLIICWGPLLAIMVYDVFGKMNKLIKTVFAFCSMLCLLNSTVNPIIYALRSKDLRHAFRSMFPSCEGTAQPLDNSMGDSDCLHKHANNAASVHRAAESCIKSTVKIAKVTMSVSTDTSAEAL", "assay": "CB1 (h) Eurofins-Cerep binding assay", "design": "ligand concentration 0.5 nM", "conditions": "filed as agonist, Compound concentration 10.0 uM"}, "[8]": {"biological_target": "Cholecystokinin receptor type A (Homo sapiens) (UniProt P32238)", "sequence (P32238 whole entry)": "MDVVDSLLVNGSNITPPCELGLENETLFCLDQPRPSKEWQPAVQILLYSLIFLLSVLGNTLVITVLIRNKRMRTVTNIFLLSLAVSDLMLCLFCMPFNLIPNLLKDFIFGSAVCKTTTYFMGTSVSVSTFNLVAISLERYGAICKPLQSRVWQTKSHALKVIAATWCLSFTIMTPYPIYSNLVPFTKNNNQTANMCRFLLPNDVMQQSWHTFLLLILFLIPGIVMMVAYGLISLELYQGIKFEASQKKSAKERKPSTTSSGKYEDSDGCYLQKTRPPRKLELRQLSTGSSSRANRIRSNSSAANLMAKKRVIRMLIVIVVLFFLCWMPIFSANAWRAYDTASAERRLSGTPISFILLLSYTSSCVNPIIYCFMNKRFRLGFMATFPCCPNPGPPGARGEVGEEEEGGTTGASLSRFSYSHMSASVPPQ", "assay": "CCK1 (CCKA) (h) Eurofins-Cerep binding assay", "design": "ligand concentration 0.08 nM", "conditions": "filed as agonist, Compound concentration 10.0 uM"}, "[9]": {"biological_target": "D(2) dopamine receptor (Homo sapiens) (UniProt P14416)", "sequence (P14416 whole entry)": "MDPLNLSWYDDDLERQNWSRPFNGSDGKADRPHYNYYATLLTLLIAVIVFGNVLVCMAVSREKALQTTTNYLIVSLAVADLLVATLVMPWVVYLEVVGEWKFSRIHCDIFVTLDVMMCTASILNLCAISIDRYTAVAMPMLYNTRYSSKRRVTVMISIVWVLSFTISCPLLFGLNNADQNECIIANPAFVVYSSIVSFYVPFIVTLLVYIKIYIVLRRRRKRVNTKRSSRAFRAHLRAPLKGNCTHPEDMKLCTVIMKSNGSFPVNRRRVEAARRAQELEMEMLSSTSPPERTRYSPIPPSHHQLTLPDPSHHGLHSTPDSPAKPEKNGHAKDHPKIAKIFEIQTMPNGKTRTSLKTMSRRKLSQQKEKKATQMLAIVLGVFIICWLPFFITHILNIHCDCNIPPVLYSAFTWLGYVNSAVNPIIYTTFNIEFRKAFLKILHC", "assay": "D2S (h) Eurofins-Cerep binding assay", "design": "ligand concentration 0.3 nM", "conditions": "filed as antagonist, Compound concentration 10.0 uM"}, "[10]": {"biological_target": "Galanin receptor type 2 (Homo sapiens) (UniProt O43603)", "assay": "GAL2 (h) Eurofins-Cerep binding assay", "design": "ligand concentration 0.05 nM", "conditions": "filed as agonist, Compound concentration 10.0 uM"}, "[11]": {"biological_target": "C-X-C chemokine receptor type 2 (Homo sapiens) (UniProt P25025)", "assay": "CXCR2 (IL-8B) (h) Eurofins-Cerep binding assay", "design": "ligand concentration 0.025 nM", "conditions": "filed as agonist, Compound concentration 10.0 uM"}, "[12]": {"biological_target": "Histamine H2 receptor (Homo sapiens) (UniProt P25021)", "sequence (P25021 whole entry)": "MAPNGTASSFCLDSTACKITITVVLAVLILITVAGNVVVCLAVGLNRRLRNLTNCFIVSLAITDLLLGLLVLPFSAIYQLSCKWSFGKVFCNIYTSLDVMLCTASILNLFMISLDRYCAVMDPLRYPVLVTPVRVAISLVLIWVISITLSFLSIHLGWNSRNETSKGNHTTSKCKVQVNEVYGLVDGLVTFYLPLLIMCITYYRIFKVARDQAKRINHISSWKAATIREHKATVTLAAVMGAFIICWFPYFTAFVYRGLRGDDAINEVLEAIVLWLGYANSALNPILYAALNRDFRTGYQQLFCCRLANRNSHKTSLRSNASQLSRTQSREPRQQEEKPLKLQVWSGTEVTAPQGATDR", "assay": "H2 (h) Eurofins-Cerep binding assay", "design": "ligand concentration 0.075 nM", "conditions": "filed as antagonist, Compound concentration 10.0 uM"}, "[13]": {"biological_target": "T2, Muscarinic acetylcholine receptor M1 (Homo sapiens) (UniProt P11229)", "T2 sequence (whole entry)": "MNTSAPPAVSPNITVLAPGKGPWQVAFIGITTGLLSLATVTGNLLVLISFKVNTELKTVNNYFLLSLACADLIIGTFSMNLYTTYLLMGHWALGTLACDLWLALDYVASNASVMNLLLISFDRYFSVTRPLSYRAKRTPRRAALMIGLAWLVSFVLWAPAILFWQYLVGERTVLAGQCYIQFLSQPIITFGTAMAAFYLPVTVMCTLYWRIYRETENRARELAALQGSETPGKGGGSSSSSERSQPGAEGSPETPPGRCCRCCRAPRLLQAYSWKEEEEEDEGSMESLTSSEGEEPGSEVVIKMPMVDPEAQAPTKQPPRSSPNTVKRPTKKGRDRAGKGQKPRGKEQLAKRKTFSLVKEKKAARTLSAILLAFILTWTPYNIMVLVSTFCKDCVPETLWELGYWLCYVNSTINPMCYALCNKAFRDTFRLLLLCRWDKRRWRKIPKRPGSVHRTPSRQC", "assay": "M1 (h) Eurofins-Cerep binding assay", "design": "ligand concentration 2 nM", "conditions": "filed as antagonist, Compound concentration 10.0 uM"}, "[14]": {"biological_target": "Substance-K receptor (Homo sapiens) (UniProt P21452)", "assay": "NK2 (h) Eurofins-Cerep binding assay", "design": "ligand concentration 0.1 nM", "conditions": "filed as agonist, Compound concentration 10.0 uM"}, "[15]": {"biological_target": "Delta-type opioid receptor (Homo sapiens, UniProt P41143)", "sequence (P41143 whole entry)": "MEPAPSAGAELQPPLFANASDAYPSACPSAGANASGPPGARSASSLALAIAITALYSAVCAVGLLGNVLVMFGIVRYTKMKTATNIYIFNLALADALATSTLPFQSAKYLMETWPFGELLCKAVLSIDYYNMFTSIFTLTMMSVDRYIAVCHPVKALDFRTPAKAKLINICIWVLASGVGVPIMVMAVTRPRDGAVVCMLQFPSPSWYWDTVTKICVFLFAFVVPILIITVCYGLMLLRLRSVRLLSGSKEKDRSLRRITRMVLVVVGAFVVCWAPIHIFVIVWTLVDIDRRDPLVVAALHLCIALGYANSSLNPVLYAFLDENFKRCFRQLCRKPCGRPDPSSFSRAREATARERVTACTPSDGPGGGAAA", "assay": "delta (DOP) (h) Eurofins-Cerep binding assay", "design": "ligand concentration 0.5 nM", "conditions": "filed as agonist, Compound concentration 10.0 uM"}, "[16]": {"biological_target": "T3, 5-hydroxytryptamine receptor 1A (Homo sapiens) (UniProt P08908)", "T3 sequence (whole entry)": "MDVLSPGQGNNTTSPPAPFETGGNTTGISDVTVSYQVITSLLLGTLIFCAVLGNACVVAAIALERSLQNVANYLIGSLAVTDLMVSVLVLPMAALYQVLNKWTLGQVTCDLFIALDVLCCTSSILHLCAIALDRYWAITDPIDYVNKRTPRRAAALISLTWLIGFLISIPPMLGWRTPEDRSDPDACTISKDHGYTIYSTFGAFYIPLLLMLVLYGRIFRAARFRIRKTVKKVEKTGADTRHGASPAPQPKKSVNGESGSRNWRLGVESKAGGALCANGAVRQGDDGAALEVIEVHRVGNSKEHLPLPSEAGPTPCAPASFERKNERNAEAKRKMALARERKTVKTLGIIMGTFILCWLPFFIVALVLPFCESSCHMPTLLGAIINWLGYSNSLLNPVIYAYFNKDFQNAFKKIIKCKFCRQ", "assay": "5-HT1A (h) Eurofins-Cerep binding assay", "design": "ligand concentration 0.5 nM", "conditions": "filed as agonist, Compound concentration 10.0 uM"}, "[17]": {"biological_target": "5-hydroxytryptamine receptor 2A (Homo sapiens) (UniProt P28223)", "sequence (P28223 whole entry)": "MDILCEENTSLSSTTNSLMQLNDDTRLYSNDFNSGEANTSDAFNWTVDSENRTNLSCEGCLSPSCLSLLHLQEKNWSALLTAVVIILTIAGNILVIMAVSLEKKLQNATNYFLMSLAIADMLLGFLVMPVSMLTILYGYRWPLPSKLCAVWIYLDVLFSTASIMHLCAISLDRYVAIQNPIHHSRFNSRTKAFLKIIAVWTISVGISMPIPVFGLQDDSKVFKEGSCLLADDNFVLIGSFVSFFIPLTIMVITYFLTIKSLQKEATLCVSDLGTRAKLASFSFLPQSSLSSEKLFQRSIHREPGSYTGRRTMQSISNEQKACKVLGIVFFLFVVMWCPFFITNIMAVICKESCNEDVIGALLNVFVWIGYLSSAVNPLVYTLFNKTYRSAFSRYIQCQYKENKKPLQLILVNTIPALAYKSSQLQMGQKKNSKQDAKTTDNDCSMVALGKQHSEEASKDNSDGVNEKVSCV", "assay": "5-HT2A (h) Eurofins-Cerep binding assay", "design": "ligand concentration 0.5 nM", "conditions": "filed as antagonist, Compound concentration 10.0 uM"}, "[18]": {"biological_target": "5-hydroxytryptamine receptor 2B (Homo sapiens) (UniProt P41595)", "assay": "5-HT2B (h) Eurofins-Cerep binding assay", "design": "ligand concentration 0.2 nM", "conditions": "filed as agonist, Compound concentration 10.0 uM"}, "[19]": {"biological_target": "T4, 5-hydroxytryptamine receptor 3A (Homo sapiens) (UniProt P46098)", "T4 sequence (whole entry)": "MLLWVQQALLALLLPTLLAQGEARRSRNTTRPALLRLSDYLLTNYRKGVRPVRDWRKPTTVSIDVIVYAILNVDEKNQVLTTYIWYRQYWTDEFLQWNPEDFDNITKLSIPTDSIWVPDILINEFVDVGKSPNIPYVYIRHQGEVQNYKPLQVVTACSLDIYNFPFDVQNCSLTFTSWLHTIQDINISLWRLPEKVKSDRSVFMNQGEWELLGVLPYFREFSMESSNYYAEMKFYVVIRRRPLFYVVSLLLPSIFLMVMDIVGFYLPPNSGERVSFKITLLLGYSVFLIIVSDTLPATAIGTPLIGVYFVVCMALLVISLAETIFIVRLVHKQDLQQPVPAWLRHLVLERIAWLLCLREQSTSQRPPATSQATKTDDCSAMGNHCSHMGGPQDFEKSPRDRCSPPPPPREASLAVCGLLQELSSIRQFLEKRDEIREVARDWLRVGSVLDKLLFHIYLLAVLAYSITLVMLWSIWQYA", "assay": "5-HT3 (h) Eurofins-Cerep binding assay", "design": "ligand concentration 0.5 nM", "conditions": "filed as antagonist, Compound concentration 10.0 uM"}, "[20]": {"biological_target": "L-type Ca2+ channel (diltiazem site, benzothiazepines) (Rattus norvegicus, UniProt P22002+P27732+Q02485)", "assay": "Ca2+ channel (L, diltiazem site) (benzothiazepines) Eurofins-Cerep binding assay", "format": "protein assay", "design": "incubation time 120 min, incubation temperature RT, ligand concentration 15 nM", "conditions": "rat cerebral cortex, probe [3H]diltiazem, compound concentration 10 uM, read-out: % Inhibition of Control Specific Binding (Mean n=2)"}, "[21]": {"biological_target": "Sodium-dependent noradrenaline transporter (Homo sapiens) (UniProt P23975)", "sequence (P23975 whole entry)": "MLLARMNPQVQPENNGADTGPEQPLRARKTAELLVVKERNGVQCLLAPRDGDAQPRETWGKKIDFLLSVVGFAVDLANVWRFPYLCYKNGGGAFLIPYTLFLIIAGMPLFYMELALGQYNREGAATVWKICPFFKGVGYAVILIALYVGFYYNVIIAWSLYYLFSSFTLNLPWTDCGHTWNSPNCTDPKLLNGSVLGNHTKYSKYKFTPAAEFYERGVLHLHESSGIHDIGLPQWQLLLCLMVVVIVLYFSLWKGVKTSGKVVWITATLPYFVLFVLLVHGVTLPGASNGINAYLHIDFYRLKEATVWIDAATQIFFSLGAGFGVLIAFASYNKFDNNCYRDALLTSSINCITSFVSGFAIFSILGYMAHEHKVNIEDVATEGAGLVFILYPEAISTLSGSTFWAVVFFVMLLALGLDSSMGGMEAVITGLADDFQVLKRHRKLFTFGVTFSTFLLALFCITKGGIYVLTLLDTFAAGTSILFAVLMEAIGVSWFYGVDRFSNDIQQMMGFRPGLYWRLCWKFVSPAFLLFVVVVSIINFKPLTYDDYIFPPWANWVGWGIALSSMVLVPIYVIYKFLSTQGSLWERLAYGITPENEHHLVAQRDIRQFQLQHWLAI", "assay": "norepinephrine transporter (h) Eurofins-Cerep binding assay", "design": "ligand concentration 1 nM", "conditions": "filed as antagonist, Compound concentration 10.0 uM"}, "[22]": {"biological_target": "D(1B) dopamine receptor (Homo sapiens) (UniProt P21918)", "conditions": "Compound concentration 10.0 uM"}, "[23]": {"biological_target": "Monocarboxylate transporter 4 (Homo sapiens, UniProt O15427)", "sequence (O15427 whole entry)": "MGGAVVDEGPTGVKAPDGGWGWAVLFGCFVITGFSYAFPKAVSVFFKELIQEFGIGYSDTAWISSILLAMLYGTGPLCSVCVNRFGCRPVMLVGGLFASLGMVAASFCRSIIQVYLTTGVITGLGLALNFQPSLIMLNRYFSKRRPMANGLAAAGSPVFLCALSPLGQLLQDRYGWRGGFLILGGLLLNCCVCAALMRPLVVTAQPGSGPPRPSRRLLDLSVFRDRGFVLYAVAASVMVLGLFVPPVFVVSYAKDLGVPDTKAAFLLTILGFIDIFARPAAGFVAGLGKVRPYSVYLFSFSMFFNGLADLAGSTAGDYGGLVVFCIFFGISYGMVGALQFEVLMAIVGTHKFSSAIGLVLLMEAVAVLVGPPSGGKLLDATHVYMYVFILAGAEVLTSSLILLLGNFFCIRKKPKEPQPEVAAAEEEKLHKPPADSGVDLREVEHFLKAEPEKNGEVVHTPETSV", "assay": "Lactate efflux inhibition assay (MDA-MB-231)"}, "[24]": {"biological_target": "5-hydroxytryptamine receptor 1B (Homo sapiens) (UniProt P28222)", "conditions": "Compound concentration 10.0 uM"}, "[25]": {"biological_target": "T1, 5-hydroxytryptamine receptor 5A", "conditions": "Compound concentration 10.0 uM"}, "[26]": {"biological_target": "D(3) dopamine receptor (Homo sapiens) (UniProt P35462)", "sequence (P35462 whole entry)": "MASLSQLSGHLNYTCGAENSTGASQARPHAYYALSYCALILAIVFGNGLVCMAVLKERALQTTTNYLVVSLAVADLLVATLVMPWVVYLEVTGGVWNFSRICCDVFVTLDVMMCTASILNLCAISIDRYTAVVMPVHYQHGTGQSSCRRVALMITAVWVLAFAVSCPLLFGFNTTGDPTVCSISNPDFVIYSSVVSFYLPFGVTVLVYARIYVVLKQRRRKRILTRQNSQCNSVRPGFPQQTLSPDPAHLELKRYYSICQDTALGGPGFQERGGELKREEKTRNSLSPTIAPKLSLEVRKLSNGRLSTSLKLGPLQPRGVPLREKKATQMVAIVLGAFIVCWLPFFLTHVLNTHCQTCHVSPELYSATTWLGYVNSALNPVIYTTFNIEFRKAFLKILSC", "conditions": "Compound concentration 10.0 uM"}}}
{"smiles": "CCOc1ccc(S(=O)(=O)Nc2ccc(Cl)cc2C#Cc2cnc(C(=O)O)cc2OC)c2ncccc12", "note": "[MSC-4381]", "values": [{"measurement": "Ki", "setting": "[1]", "value": 1.63, "unit": "µM"}, {"measurement": "% Inhibition of Control Specific Binding (Mean n=2)", "setting": "[2]", "value": 56.2, "unit": "%"}, {"measurement": "% Inhibition of Control Specific Binding (Mean n=2)", "setting": "[3]", "value": 17.4, "unit": "%"}, {"measurement": "% Inhibition of Control Specific Binding (Mean n=2)", "setting": "[4]", "value": 4.2, "unit": "%"}, {"measurement": "% Inhibition of Control Specific Binding (Mean n=2)", "setting": "[5]", "value": -7.6, "unit": "%"}, {"measurement": "% Inhibition of Control Specific Binding (Mean n=2)", "setting": "[6]", "value": -1.1, "unit": "%"}, {"measurement": "% Inhibition of Control Specific Binding (Mean n=2)", "setting": "[7]", "value": -11.3, "unit": "%"}, {"measurement": "% Inhibition of Control Specific Binding (Mean n=2)", "setting": "[8]", "value": -18.1, "unit": "%"}, {"measurement": "% Inhibition of Control Specific Binding (Mean n=2)", "setting": "[9]", "value": 9.2, "unit": "%"}, {"measurement": "% Inhibition of Control Specific Binding (Mean n=2)", "setting": "[10]", "value": 11.1, "unit": "%"}, {"measurement": "% Inhibition of Control Specific Binding (Mean n=2)", "setting": "[11]", "value": 7.3, "unit": "%"}, {"measurement": "% Inhibition of Control Specific Binding (Mean n=2)", "setting": "[12]", "value": -16.1, "unit": "%"}, {"measurement": "% Inhibition of Control Specific Binding (Mean n=2)", "setting": "[13]", "value": 4.6, "unit": "%"}, {"measurement": "% Inhibition of Control Specific Binding (Mean n=2)", "setting": "[14]", "value": 46, "unit": "%"}, {"measurement": "% Inhibition of Control Specific Binding (Mean n=2)", "setting": "[15]", "value": 11.7, "unit": "%"}, {"measurement": "% Inhibition of Control Specific Binding (Mean n=2)", "setting": "[16]", "value": -58.9, "unit": "%"}, {"measurement": "% Inhibition of Control Specific Binding (Mean n=2)", "setting": "[17]", "value": -4.1, "unit": "%"}, {"measurement": "% Inhibition of Control Specific Binding (Mean n=2)", "setting": "[18]", "value": -47.1, "unit": "%"}, {"measurement": "% Inhibition of Control Specific Binding (Mean n=2)", "setting": "[19]", "value": -8, "unit": "%"}, {"measurement": "inhibition at 120 min, 10 µM", "setting": "[20]", "value": -8.8, "unit": "%"}, {"measurement": "% Inhibition of Control Specific Binding (Mean n=2)", "setting": "[21]", "value": 30.4, "unit": "%"}, {"measurement": "inhibition", "setting": "[22]", "value": 47.7, "unit": "%"}]}
{"smiles": "COc1cc(C(=O)O)ncc1C#Cc1ccccc1NS(=O)(=O)c1cccc2c(N(C)C)ccnc12", "note": "[MSC-0516]", "values": [{"measurement": "IC50", "setting": "[23]", "value": "0.506 µM (not active)"}, {"measurement": "inhibition", "setting": "[24]", "value": 10.6, "unit": "%"}, {"measurement": "inhibition", "setting": "[25]", "value": 12.2, "unit": "%"}, {"measurement": "inhibition", "setting": "[26]", "value": -9.21, "unit": "%"}]}
